Results as given in patent US20130283404A1, “EPIGENETICS IN AUTOIMMUNITY” (The Regents of the University of Michigan, priority 2012, published 2013).

Tests used:
PKCδ [1] = biological target: T1, PKCδ (Homo sapiens, UniProt Q05655); test: PKCδ phosphorylation (p-T505, p-Y311) by immunoblot in PMA-stimulated CD4+ T cells; format: cell-based
T1 construct: Following stimulation, whole cell lysates were obtained; endogenous in cells; host or cells: primary CD4+ T cells from healthy donors or lupus patients
T1 sequence (Q05655 whole entry): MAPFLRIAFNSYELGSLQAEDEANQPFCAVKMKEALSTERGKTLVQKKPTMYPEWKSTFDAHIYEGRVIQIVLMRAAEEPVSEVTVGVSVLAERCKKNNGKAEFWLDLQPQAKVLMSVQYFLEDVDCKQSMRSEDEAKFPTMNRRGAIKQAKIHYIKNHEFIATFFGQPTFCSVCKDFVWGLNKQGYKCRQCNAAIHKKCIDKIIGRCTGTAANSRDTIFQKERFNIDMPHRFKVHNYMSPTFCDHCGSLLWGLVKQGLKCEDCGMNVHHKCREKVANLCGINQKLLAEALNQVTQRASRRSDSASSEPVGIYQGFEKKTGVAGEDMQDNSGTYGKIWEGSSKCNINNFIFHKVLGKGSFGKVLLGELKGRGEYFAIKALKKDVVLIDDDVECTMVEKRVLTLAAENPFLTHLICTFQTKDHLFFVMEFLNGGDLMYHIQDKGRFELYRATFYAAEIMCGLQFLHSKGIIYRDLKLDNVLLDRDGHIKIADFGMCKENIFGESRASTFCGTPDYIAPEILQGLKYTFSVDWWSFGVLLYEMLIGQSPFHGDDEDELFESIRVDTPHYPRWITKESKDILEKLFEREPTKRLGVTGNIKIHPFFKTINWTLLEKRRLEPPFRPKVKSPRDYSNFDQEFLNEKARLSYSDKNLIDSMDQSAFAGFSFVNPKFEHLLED
Experimental: Peripheral blood mononuclear cells were isolated from healthy donors or SLE patients by Ficoll-Hypaque density gradient centrifugation. CD4+ T cells were then purified by negative selection using magnetic beads (CD4+ T cell isolation kit; Miltenyi Biotec, Auburn, Calif.) as previously reported (Gorelik, 2007; herein incorporated by reference in its entirety).
(§1) CD4+ T cells were suspended in RPMI 1640 supplemented with 10% fetal calf serum, 2 mM glutamine and penicillin/streptomycin then left unstimulated or stimulated with 50 ng/ml PMA for 15 min at 37° C. Treatment with peroxynitrite was performed at the concentrations and time specified in each experiment and before PMA stimulation. Following stimulation, whole cell lysates were obtained and protein content quantified using the BCA Protein Assay (Pierce, Rockford, Ill.).
(§2) Whole cell protein was fractionated by SDS-PAGE, transferred to nitrocellulose membranes (Schleicher and Schuell, Keene, N.H.) then stained with Ponceau S (Sigma) to verify equal protein loading between lanes. After incubation with the kinase specific antibody then the secondary antibody, protein bands were visualized by chemiluminescence (Amersham, Piscataway, N.J.). The bands on X-ray films were scanned and analyzed with ImageQuant 5.2 software (Amersham) for quantification. Where indicated, blots were stripped and re-probed with the corresponding antibody. Values were normalized to β-actin or the corresponding kinase as indicated.
Experiments were performed during development of embodiments of the present invention to determine if ONOO^− causes the PKCδ T^505 phosphorylation defect observed in lupus T cells. CD4+ T cells from healthy subjects were treated with increasing concentrations of ONOO^− then stimulated with PMA.
The phosphorylation of Y^311 in the PKCδ molecule was also examined, because this amino acid is phosphorylated in cells undergoing oxidative stress (Steinberg, 2004; Kikkawa, 2002; herein incorporated by reference in their entireties). […] It is important to note that p-Y^311 is almost undetectable in resting CD4+ T cells (not shown) similar to p-T^505. […] While PMA promotes phosphorylation on T^505, Y^311 is almost insensitive. In contrast, ONOO^− increases Y311 phosphorylation with a concomitant decrease in p-T^505.

PKCα = PKCα activation loop phosphorylation by immunoblot in PMA-stimulated CD4+ T cells; format: cell-based, human; details: CD4+ T cells from healthy subjects, increasing ONOO− then PMA
PKCθ = biological target: T2, PKCθ (Homo sapiens, UniProt Q04759); test: PKCθ activation loop phosphorylation by immunoblot in PMA-stimulated CD4+ T cells; format: cell-based; details: CD4+ T cells from healthy subjects, increasing ONOO− then PMA
T2 construct: Following stimulation, whole cell lysates were obtained; endogenous in cells; host or cells: primary CD4+ T cells from healthy donors
T2 sequence (Q04759 whole entry): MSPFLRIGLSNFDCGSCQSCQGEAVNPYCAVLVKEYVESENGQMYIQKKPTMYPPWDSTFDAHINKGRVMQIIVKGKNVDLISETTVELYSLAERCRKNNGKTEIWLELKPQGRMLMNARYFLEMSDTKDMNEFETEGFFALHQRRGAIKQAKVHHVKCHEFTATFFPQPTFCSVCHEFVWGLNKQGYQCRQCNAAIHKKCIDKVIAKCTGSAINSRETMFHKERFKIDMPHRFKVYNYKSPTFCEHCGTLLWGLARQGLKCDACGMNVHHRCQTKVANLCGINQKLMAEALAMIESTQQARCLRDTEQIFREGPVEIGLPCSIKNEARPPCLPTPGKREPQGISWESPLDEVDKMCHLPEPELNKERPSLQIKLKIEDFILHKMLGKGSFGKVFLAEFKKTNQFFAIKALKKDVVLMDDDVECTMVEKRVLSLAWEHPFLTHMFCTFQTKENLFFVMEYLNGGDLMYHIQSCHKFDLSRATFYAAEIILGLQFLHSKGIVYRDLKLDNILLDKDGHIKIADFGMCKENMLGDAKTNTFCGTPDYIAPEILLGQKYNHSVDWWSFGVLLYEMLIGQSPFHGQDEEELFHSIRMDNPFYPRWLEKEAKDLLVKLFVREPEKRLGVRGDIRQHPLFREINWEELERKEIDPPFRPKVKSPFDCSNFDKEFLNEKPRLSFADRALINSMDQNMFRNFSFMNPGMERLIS

3-nitrotyrosine proteins = test: 3NO2-tyrosine protein derivative formation by immunoblot in CD4+ T cells; format: cell-based, human; details: CD4+ T cells from a healthy donor, increasing ONOO− then PMA
Experimental: as §1, §2
Experiments were conducted during development of embodiments of the present invention to confirm the effect of ONOO^− by measuring 3NO2-tyrosine protein derivative formation. CD4+ T cells from a healthy donor were treated with increasing ONOO— concentrations then stimulated with PMA. […]

ERK [2] = test: PMA-stimulated ERK phosphorylation by immunoblot in CD4+ T cells; format: cell-based, human; details: CD4+ T cells from healthy controls, increasing ONOO− then PMA
Experimental: as §1, §2
This agrees with our previous results showing that PKCδ T505 phosphorylation is upstream of ERK (Gorelik, 2007; herein incorporated by reference in its entirety) and its impairment decreases ERK pathway signaling.

PKCδ [3] = biological target: T1, PKCδ; test: PKCδ nitration: anti-nitrotyrosine immunoprecipitation and immunoblot of CD4+ T cell lysates; format: cell-based; details: control T cells treated with ONOO−
Experimental: Immunoprecipitations were performed according to the manufacturer's instructions. Lysates from normal or lupus T cells were incubated with the agarose-conjugated anti-nitrotyrosine antibody overnight at 4° C. Following centrifugation an aliquot of the supernatant (containing non-nitrated proteins) and the beads were resuspended in Laemmli sample buffer and boiled for 5 min. Proteins from each fraction were then analyzed in parallel by SDS-PAGE and immunoblot analysis.
Experiments were conducted during development of embodiments of the present invention to determine whether PKCδ is inactivated in T cells from patients with active lupus through nitration, similar to ONOO treated T cells. CD4+ T cells from 6 lupus patients with active disease (SLEDAI≧4) were stimulated with PMA and nitrated proteins immunoprecipitated from the lysates with anti-3NO2-Tyr antibodies. […] Total and T505 phosphorylated PKCδ content were then compared by immunoblotting.
Nitrated and non-nitrated PKCδ were analyzed as the total PKCδ content in the precipitate and supernatant respectively. The levels of total PKCδ (supernatant+immunoprecipitate) were similar in untreated or ONOO^− treated T cells from control donors and lupus patients (FIGS. 5 A and B). […]

ERK [4] = test: ERK phosphorylation in CD3+ splenic T cells of dnPKCδ/CD2-rtTA mice receiving dox; format: in vivo, mouse; details: dox in drinking water two weeks, relative to sucrose controls
Experimental: (§3) Double transgenic mice were generated and maintained in a specific pathogen-free environment. All protocols were approved by the University of Michigan Committee on the Use and Care of Animals (UCUCA). Pups were weaned at 20 days of age and genotyped for the presence of both genes by PCR. Transgene expression was induced by giving 2 mg/ml of dox in the drinking water and supplemented with 5% of sucrose. Double transgenic control animals were given 5% sucrose alone. All the double transgenic mice were developmentally normal. Protein and blood in mouse urine was measured using Chemstrip 6 dipsticks (Roche, Madison, Wis.).
20 μg of protein was diluted in Laemmli loading buffer and denatured by boiling for 5 min followed by electrophoresis in 10-12% SDS-polyacrylamide gels. The fractionated proteins were then electrophoretically transferred to nitrocellulose membranes (Schleicher and Schuell, Keene, N.H.) and stained with Ponceau S (Sigma) to verify equal loading. Membranes were blocked for 1 h in Tris-buffered saline (TBS) containing 0.1% Tween (Sigma) and 5% nonfat dry milk (Bio-Rad). […] For quantitative studies, the bands on X-ray films were scanned and analyzed with ImageQuant 5.2 software (Amersham). […]

Dnmt1 = Dnmt1 mRNA by real time RT-PCR in spleens of double transgenic mice given dox; format: in vivo, mouse; details: dox plus sucrose 2 weeks, spleen RNA
Experimental: as §3
(§4) 150 ng of RNA was converted to cDNA and amplified in one step using a Quanti-Tect SYBR Green RT-PCR kit (Qiagen). CD70 transcripts were quantitated by real-time RT-PCR using a Rotor-Gene 3000 (Corbett Research, Sydney, Australia) and previously published protocols (Gorelik, 2007; herein incorporated by reference in its entirety). The amplification conditions were: 30 min at 50° C., 15 min at 95° C., 40 cycles of 15s at 94° C., 20s at 56° C. and 30s at 72° C. followed by a final extension at 72° for 5 min. Transcript expression levels were normalized to GAPDH. […]
Double transgenic mice were given dox plus sucrose or sucrose alone for 2 weeks. The mice were then sacrificed, RNA isolated from their spleens, then Dnmt1 mRNA levels were measured by real time RT-PCR. […]

CD70 = CD70 mRNA in CD3+ T cells of dnPKCδ/CD2-rtTA mice with and without dox; format: in vivo, mouse; details: dox 2 weeks, relative to controls
Experimental: as §3, §4

dnPKCδ/CD2rtTA mice [5] = test: Serum IgG anti-dsDNA antibodies by ELISA in double transgenic mice given dox; format: in vivo, mouse; details: dox in drinking water, serially over time, versus sucrose controls
Experimental: Serum anti-dsDNA IgG antibodies were measured by ELISA. Microtiter plates (Costar, Corning, N.Y.) were coated overnight at 4° C. with 10 μg plasmid dsDNA, then 5 μL of mouse sera were added to each well in 100 μl of buffer and incubated overnight at 4° C. Bound anti-dsDNA antibody was detected by chemiluminescence using HRP-goat anti-mouse IgG (Bethyl Lab Inc) at 450 nm in a spectrophotometer equipped with Softmax Pro software (Molecular Devices, Sunnyvale, Calif.). Murine monoclonal anti-dsDNA antibody (Chemicon) was used for the standard curve.
Experiments were conducted during the development of embodiments of the present invention to determine if the double transgenic develop anti-dsDNA antibodies when given dox. The double transgenic mice were given sucrose or sucrose plus dox in their drinking water, and IgG anti-dsDNA antibodies were measured serially over time by ELISA.

dnPKCδ/CD2rtTA mice [6] = test: Kidney histopathology in double transgenic dnPKCδ/CD2rtTA mice given Doxy; format: in vivo, mouse; details: double transgenic dnPKCδ/CD2rtTA mice pretreated with Doxy
Experimental: Double transgenic dnPKCδ/CD2rtTA mice were given 4 mg/ml dox/5% sucrose in their drinking water for 20 wks. Double transgenic animals treated with 5% sucrose were used as controls. At indicated times, their kidneys and lungs were removed. Kidneys were divided in two, one half embedded in O.C.T. (Thermo Fisher) and frozen in liquid nitrogen while the other half and the lung were fixed in 10% formalin, paraffin embedded and stained with hematoxylin and eosin. Five micron sections were cut from the frozen tissue and fixed for 10 minutes in ice cold acetone. 10% horse serum/PBS was used to block non-specific sites and the sections were stained with a 1:50 dilution of biotin-Goat anti-mouse IgG (Fc specific) antibody (US Biologicals)/FITC-Streptavidin (BD Pharmingen) to detect IgG depositions.
Immunohistochemical staining noted IgG deposition along capillary walls and in the mesangial region of glomeruli from transgenic animals pretreated with Doxy (FIG. 11). It was also observed perivascular infiltration of leukocytes in glomeruli (FIG. 12), lungs (FIG. 13) and liver of transgenic animals pretreated with Doxy.

[7] = PMA stimulation, untreated (0 μM ONOO−) CD4+ T cells

## O=NOO [ONOO^−, peroxynitrite]
PKCδ [1]; CD4+ T cells from healthy subjects, increasing ONOO− (20-80 μM, 15 min) then PMA
  PKCδ T505 phosphorylation: concentration dependent decrease
PKCδ [1]; PMA stimulated CD4+ T cells, increasing ONOO−
  PKCδ Y311 phosphorylation: concentration-dependent increase
PKCα
  PKC α activation loop phosphorylation: not appreciably affected
PKCθ
  PKC θ activation loop phosphorylation: not appreciably affected
3-nitrotyrosine proteins
  3-nitrotyrosine derivative formation: concentration-dependent increase
ERK [2]
  PMA-stimulated ERK phosphorylation: declines
PKCδ [3]
  nitrated PKCδ fraction T505 phosphorylated after PMA stimulation: 6%
PKCδ [3]; PMA stimulated
  PKCδ nitrated: 74%

## CCCCCCCCCCCCCC(=O)O[C@@H]1[C@@H](C)[C@@]2(O)[C@@H](C=C(CO)C[C@]3(O)C(=O)C(C)=C[C@@H]23)[C@@H]2C(C)(C)[C@]12OC(C)=O [PMA]
PKCδ [1]; [7]
  PKCδ T505 phosphorylation: substantial increase
  PKCδ Y311 phosphorylation: no appreciable effect

## C[C@H]1c2cccc(O)c2C(O)=C2C(=O)[C@]3(O)C(O)=C(C(N)=O)C(=O)[C@@H](N(C)C)[C@@H]3[C@@H](O)[C@@H]21 [dox, doxycycline]
ERK [4]
  ERK phosphorylation following PMA stimulation: Reduced
Dnmt1
  decrease in Dnmt1 transcripts: approximately 45%
CD70
  CD70 mRNA expression: significantly increased
dnPKCδ/CD2rtTA mice [5]
  IgG anti-dsDNA antibodies: significantly higher levels
dnPKCδ/CD2rtTA mice [6]
  kidney histology: evidence of glomerulonephritis
